The source of these data is ChEMBL document CHEMBL1127711, “Preparation of a novel series of phosphonate norstatine renin inhibitors” (Bioorg Med Chem Lett, 1994).

The structures appear in SMILES notation.

The target of this experiment is T1, Renin (Homo sapiens, UniProt P00797).
T1 sequence (P00797 whole entry): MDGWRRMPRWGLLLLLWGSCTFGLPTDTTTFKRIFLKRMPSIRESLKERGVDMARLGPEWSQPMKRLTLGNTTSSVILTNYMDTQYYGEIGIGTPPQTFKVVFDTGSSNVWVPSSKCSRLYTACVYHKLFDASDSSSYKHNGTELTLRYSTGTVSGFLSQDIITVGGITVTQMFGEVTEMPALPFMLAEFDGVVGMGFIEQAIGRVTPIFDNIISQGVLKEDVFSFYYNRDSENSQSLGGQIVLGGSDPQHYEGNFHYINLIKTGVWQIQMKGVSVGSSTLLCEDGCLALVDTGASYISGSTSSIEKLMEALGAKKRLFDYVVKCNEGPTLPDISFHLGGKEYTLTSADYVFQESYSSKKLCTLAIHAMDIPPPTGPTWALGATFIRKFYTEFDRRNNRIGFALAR
Kind of experiment: Compound was tested for the inhibition of human plasma renin(Hu Renin). The class given is cell-free.
Compound `CSC[C@H](NC(=O)[C@H](Cc1ccccc1)NC(=O)N1CCOCC1)C(=O)N[C@@H](CC1CCCCC1)C(O)P(=O)(OCc1ccccc1)OCc1ccccc1` (some centres not stated) came in with an IC50 of 190 nM.
The value for `COP(=O)(OC)C(O)[C@H](CC1CCCCC1)NC(=O)[C@H](CCc1cnc[nH]1)NC(=O)[C@H](Cc1ccccc1)NC(=O)N1CCOCC1` (some centres not stated) was 190 nM; that for `CCCC[C@H](NC(=O)[C@H](Cc1ccccc1)NC(=O)N1CCOCC1)C(=O)N[C@@H](CC1CCCCC1)C(O)P(=O)(OC)OC` (some centres not stated) was 32 nM.
To `CCCOP(=O)(OCCC)C(O)[C@H](CC1CCCCC1)NC(=O)[C@H](CSC)NC(=O)[C@H](Cc1ccccc1)NC(=O)N1CCOCC1` (some centres not stated) belongs 60 nM.
The value for `COP(=O)(OC)C(O)[C@H](CC1CCCCC1)NC(=O)[C@H](CSC)NC(=O)[C@H](Cc1ccccc1)NC(=O)N1CCOCC1` (some centres not stated) was 5.8 nM.
`CSC[C@H](NC(=O)[C@H](Cc1ccccc1)NC(=O)N1CCOCC1)C(=O)N[C@@H](CC1CCCCC1)C(O)P(=O)(OC(C)C)OC(C)C` (some centres not stated) registered an IC50 of 1400 nM.
To `CCOP(=O)(OCC)C(O)[C@H](CC1CCCCC1)NC(=O)[C@H](CSC)NC(=O)[C@H](Cc1ccccc1)NC(=O)N1CCOCC1` (some centres not stated) belongs 25 nM.
